Measured values from US20240109900A1, “AZABICYCLIC SHP2 INHIBITORS” (IRBM S.P.A., priority 2021, published 2024).
Read-outs that look alike come from different tables or passages of the source.

Experiments:
[1] = biological target: SHP-2 enzyme (Met1-Leu525) (Homo sapiens (Human), UniProt Q06124); test: SHP2 inhibition enzymatic assay; assay type: biochemical; conditions: 0.5 nM SHP-2 activated by 500 nM IRS1 peptide, 75 μM DiFMUP substrate; read-out: SHP2wt-IC50
Outline: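 SHP-2 (Met1-Leu525), 0.5 nM, activated with 500 nM IRS1 bis-phosphopeptide, preincubated 30 min with compounds in HEPES pH 7.2 buffer with 5 mM DTT. 75 μM DiFMUP added for 30 min at room temperature, stopped with bpV; fluorescence read. IC50 from four-parameter logistic fit of % inhibition.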

[2] = system: ERK phosphorylation in KYSE-520 cells; test: Phospho-ERK cellular assay; assay type: cell-based; conditions: KYSE-520 cells, 2 h at 37° C., phospho-ERK1/2 (Thr202/Tyr204) TR-FRET, read-out: PERK IC50
Outline: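 TR-FRET read-out of ERK1/2 Thr202/Tyr204 phosphorylation was taken after overnight antibody incubation at room temperature. Before that, KYSE-520 cells were treated 2 h at 37 °C with compound dilutions and lysed 30 min. Percent inhibition relative to vehicle and cell-free wells was fitted four-parametrically to give IC50.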

Chain of SHP-2 enzyme (Met1-Leu525) (Q06124 1-525): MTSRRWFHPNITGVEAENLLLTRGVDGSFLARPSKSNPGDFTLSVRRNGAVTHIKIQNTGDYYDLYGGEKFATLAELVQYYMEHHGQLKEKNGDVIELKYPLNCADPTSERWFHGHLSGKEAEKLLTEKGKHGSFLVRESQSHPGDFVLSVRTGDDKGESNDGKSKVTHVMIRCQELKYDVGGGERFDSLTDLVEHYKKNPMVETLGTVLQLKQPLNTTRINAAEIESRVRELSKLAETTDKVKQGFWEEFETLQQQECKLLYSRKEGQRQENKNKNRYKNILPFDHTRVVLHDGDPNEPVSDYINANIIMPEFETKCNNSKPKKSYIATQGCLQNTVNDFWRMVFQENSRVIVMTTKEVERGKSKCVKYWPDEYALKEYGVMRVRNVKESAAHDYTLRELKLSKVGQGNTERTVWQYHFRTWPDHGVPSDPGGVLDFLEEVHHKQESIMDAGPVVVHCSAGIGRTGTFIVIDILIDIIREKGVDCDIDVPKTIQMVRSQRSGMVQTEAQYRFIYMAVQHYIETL

Row | SMILES | IC50 [1] [nM] | IC50 ([2]; Homo sapiens, KYSE-520, 2 h) [nM] | IC50 [2] [nM] | IC50 ([2]; Homo sapiens) [nM]
1 | COc1cc2ccc(-c3n[nH]c4nc(N5CC[C@@H]6[C@H](C5)[C@@]6(CN)c5ccccc5F)cnc34)cc2nn1 [Example 262, ((1S,6R,7R)-7-(2-fluorophenyl)-3-(3-(3-methoxycinnolin-7-yl)-1H-pyrazolo[3,4-b]pyrazin-6-yl)-3-azabicyclo[4.1.0]heptan-7-yl)methanamine] | < 500 | < 1000 | – | –
2 | NC[C@]1(c2ccccc2F)[C@@H]2CCN(c3cnc4c(-c5ccnc(-c6cnco6)c5Cl)n[nH]c4n3)C[C@@H]21 [Example 263, ((1S,6R,7R)-3-(3-(3-chloro-2-(oxazol-5-yl)pyridin-4-yl)-1H-pyrazolo[3,4-b]pyrazin-6-yl)-7-(2-fluorophenyl)-3-azabicyclo[4.1.0]heptan-7-yl)methanamine] | < 500 | < 1000 | – | –
3 | NC[C@]1(c2ccccc2F)[C@@H]2CCN(c3cnc4c(-c5ccc(-c6ncco6)cc5Cl)n[nH]c4n3)C[C@@H]21 [Example 264, ((1S,6R,7R)-3-(3-(2-chloro-4-(oxazol-2-yl)phenyl)-1H-pyrazolo[3,4-b]pyrazin-6-yl)-7-(2-fluorophenyl)-3-azabicyclo[4.1.0]heptan-7-yl)methanamine] | < 500 | < 1000 | – | –
4 | Cn1ccc(-c2nccc(-c3n[nH]c4nc(N5CC[C@@H]6[C@H](C5)[C@@]6(CN)c5ccccc5F)cnc34)c2Cl)n1 [Example 265, ((1S,6R,7R)-3-(3-(3-chloro-2-(1-methyl-1H-pyrazol-3-yl)pyridin-4-yl)-1H-pyrazolo[3,4-b]pyrazin-6-yl)-7-(2-fluorophenyl)-3-azabicyclo[4.1.0]heptan-7-yl)methanamine] | < 500 | < 1000 | – | –
5 | NC[C@]1(c2cccc(F)c2F)[C@@H]2CCN(c3cnc4c(-c5ccc(C(=O)O)c6ncccc56)n[nH]c4n3)C[C@@H]21 [Example 266, 5-(6-((1S,6R,7R)-7-(aminomethyl)-7-(2,3-difluorophenyl)-3-azabicyclo[4.1.0]heptan-3-yl)-1H-pyrazolo[3,4-b]pyrazin-3-yl)quinoline-8-carboxylic acid] | < 500 | < 1000 | – | –
6 | CNC(=O)c1ccc(-c2n[nH]c3nc(N4CC[C@@H]5[C@H](C4)[C@@]5(CN)c4cccc(F)c4F)cnc23)c2cccnc12 [Example 267, 5-(6-((1S,6R,7R)-7-(aminomethyl)-7-(2,3-difluorophenyl)-3-azabicyclo[4.1.0]heptan-3-yl)-1H-pyrazolo[3,4-b]pyrazin-3-yl)-N-methylquinoline-8-carboxamide] | < 500 | < 1000 | – | –
7 | NC[C@]1(c2ccccc2F)[C@@H]2CCN(c3cnc4c(-c5cc[nH]c(=O)c5Cl)n[nH]c4n3)C[C@@H]21 [Example 268, 4-(6-((1S,6R,7R)-7-(aminomethyl)-7-(2-fluorophenyl)-3-azabicyclo[4.1.0]heptan-3-yl)-1H-pyrazolo[3,4-b]pyrazin-3-yl)-3-chloropyridin-2(1H)-one] | < 500 | < 1000 | – | –
8 | Cn1ccc(-c2n[nH]c3nc(N4CC[C@@H]5[C@H](C4)[C@@]5(CN)c4ccccc4F)cnc23)c(Cl)c1=O [Example 269, 4-(6-((1S,6R,7R)-7-(aminomethyl)-7-(2-fluorophenyl)-3-azabicyclo[4.1.0]heptan-3-yl)-1H-pyrazolo[3,4-b]pyrazin-3-yl)-3-chloro-1-methylpyridin-2(1H)-one] | < 500 | > 5000 | – | –
9 | NC[C@]1(c2ccccc2F)[C@@H]2CCN(c3cnc4c(N5CC6(CCC6)c6ncccc65)n[nH]c4n3)C[C@@H]21 [Example 270, ((1S,6R,7R)-7-(2-fluorophenyl)-3-(3-(spiro[cyclobutane-1,3′-pyrrolo[3,2-b]pyridin]-1′(2′H)-yl)-1H-pyrazolo[3,4-b]pyrazin-6-yl)-3-azabicyclo[4.1.0]heptan-7-yl)methanamine] | < 500 | < 1000 | – | –
10 | NC[C@]1(c2ccccc2F)[C@@H]2CCN(c3cnc4c(-c5ccc(C(=O)O)cc5Cl)n[nH]c4n3)C[C@@H]21 [Example 271, 4-(6-((1S,6R,7R)-7-(aminomethyl)-7-(2-fluorophenyl)-3-azabicyclo[4.1.0]heptan-3-yl)-1H-pyrazolo[3,4-b]pyrazin-3-yl)-3-chlorobenzoic acid] | < 500 | > 5000 | – | –
11 | Cn1c(=O)ccc2c(-c3n[nH]c4nc(N5CC[C@@H]6[C@H](C5)[C@@]6(CN)c5ccccc5F)cnc34)cccc21 [Example 272, 5-(6-((1S,6R,7R)-7-(aminomethyl)-7-(2-fluorophenyl)-3-azabicyclo[4.1.0]heptan-3-yl)-1H-pyrazolo[3,4-b]pyrazin-3-yl)-1-methylquinolin-2(1H)-one] | < 500 | < 1000 | – | –
12 | CNC(=O)c1ccc(-c2n[nH]c3nc(N4CC[C@@H]5[C@H](C4)[C@@]5(CN)c4ccccc4F)cnc23)c(Cl)c1 [Example 273, 4-(6-((1S,6R,7R)-7-(aminomethyl)-7-(2-fluorophenyl)-3-azabicyclo[4.1.0]heptan-3-yl)-1H-pyrazolo[3,4-b]pyrazin-3-yl)-3-chloro-N-methylbenzamide] | < 500 | < 1000 | – | –
13 | Cn1ccc2c(-c3n[nH]c4nc(N5CC[C@@H]6[C@H](C5)[C@@]6(CN)c5ccccc5F)cnc34)cccc2c1=O [Example 274, 5-(6-((1S,6R,7R)-7-(aminomethyl)-7-(2-fluorophenyl)-3-azabicyclo[4.1.0]heptan-3-yl)-1H-pyrazolo[3,4-b]pyrazin-3-yl)-2-methylisoquinolin-1(2H)-one] | < 500 | < 1000 | – | –
14 | Cc1cc([C@@]2(CN)[C@@H]3CN(c4cnc5c(-c6ccc7nn(C)cc7c6Cl)n[nH]c5n4)C[C@@H]32)no1 [Example 275, ((1R,5S,6r)-3-(3-(4-chloro-2-methyl-2H-indazol-5-yl)-1H-pyrazolo[3,4-b]pyrazin-6-yl)-6-(5-methylisoxazol-3-yl)-3-azabicyclo[3.1.0]hexan-6-yl)methanamine] | < 500 | – | < 1000 | –
15 | NC[C@]1(c2ccccc2F)[C@@H]2CCN(c3cnc4c(-c5ccc(C(N)=O)cc5Cl)n[nH]c4n3)C[C@@H]21 [Example 276, 4-(6-((1S,6R,7R)-7-(aminomethyl)-7-(2-fluorophenyl)-3-azabicyclo[4.1.0]heptan-3-yl)-1H-pyrazolo[3,4-b]pyrazin-3-yl)-3-chlorobenzamide] | < 500 | < 1000 | – | –
16 | NC[C@]1(c2ccccc2F)[C@@H]2CCN(c3cnc4c(-c5cc(C(=O)O)ccc5Cl)n[nH]c4n3)C[C@@H]21 [Example 277, 3-(6-((1S,6R,7R)-7-(aminomethyl)-7-(2-fluorophenyl)-3-azabicyclo[4.1.0]heptan-3-yl)-1H-pyrazolo[3,4-b]pyrazin-3-yl)-4-chlorobenzoic acid] | < 500 | > 5000 | – | –
17 | Cn1c(-c2n[nH]c3nc(N4CC[C@@H]5[C@H](C4)[C@@]5(CN)c4ccccc4F)cnc23)ccc(Cl)c1=O [Example 278, 6-(6-((1S,6R,7R)-7-(aminomethyl)-7-(2-fluorophenyl)-3-azabicyclo[4.1.0]heptan-3-yl)-1H-pyrazolo[3,4-b]pyrazin-3-yl)-3-chloro-1-methylpyridin-2(1H)-one] | < 500 | < 1000 | – | –
18 | NC[C@]1(c2ccccc2F)[C@@H]2CCN(c3cnc4c(-c5ccc(C(=O)NC6CC6)c6ncccc56)n[nH]c4n3)C[C@@H]21 [Example 279, 5-(6-((1S,6R,7R)-7-(aminomethyl)-7-(2-fluorophenyl)-3-azabicyclo[4.1.0]heptan-3-yl)-1H-pyrazolo[3,4-b]pyrazin-3-yl)-N-cyclopropylquinoline-8-carboxamide] | < 500 | < 1000 | – | –
19 | CC(C)n1cc2c(Cl)c(-c3n[nH]c4nc(N5CC[C@@H]6[C@H](C5)[C@@]6(CN)c5ccccc5F)cnc34)ccc2n1 [Example 280, ((1S,6R,7R)-3-(3-(4-chloro-2-isopropyl-2H-indazol-5-yl)-1H-pyrazolo[3,4-b]pyrazin-6-yl)-7-(2-fluorophenyl)-3-azabicyclo[4.1.0]heptan-7-yl)methanamine] | < 500 | < 1000 | – | –
20 | NC[C@]1(c2ccccc2F)[C@@H]2CCN(c3cnc4c(-c5cc(C(N)=O)ccc5Cl)n[nH]c4n3)C[C@@H]21 [Example 281, 3-(6-((1S,6R,7R)-7-(aminomethyl)-7-(2-fluorophenyl)-3-azabicyclo[4.1.0]heptan-3-yl)-1H-pyrazolo[3,4-b]pyrazin-3-yl)-4-chlorobenzamide] | < 500 | > 5000 | – | –
21 | CS(=O)(=O)NC(=O)c1ccc(-c2n[nH]c3nc(N4CC[C@@H]5[C@H](C4)[C@@]5(CN)c4ccccc4F)cnc23)c2cccnc12 [Example 282, 5-(6-((1S,6R,7R)-7-(aminomethyl)-7-(2-fluorophenyl)-3-azabicyclo[4.1.0]heptan-3-yl)-1H-pyrazolo[3,4-b]pyrazin-3-yl)-N-(methylsulfonyl)quinoline-8-carboxamide] | < 500 | < 1000 | – | –
22 | Cc1csc([C@@]2(CN)[C@@H]3CN(c4cnc5c(-c6ccc(-n7cccn7)cc6Cl)n[nH]c5n4)C[C@@H]32)n1 [Example 283, ((1R,5S,6r)-3-(3-(2-chloro-4-(1H-pyrazol-1-yl)phenyl)-1H-pyrazolo[3,4-b]pyrazin-6-yl)-6-(4-methylthiazol-2-yl)-3-azabicyclo[3.1.0]hexan-6-yl)methanamine] | < 500 | – | – | < 1000
